Source: publication PMC6986443, “T‐495, a novel low cooperative M1 receptor positive allosteric modulator, improves memory deficits associated with cholinergic dysfunction and is characterized by low gastrointestinal side effect risk” (Pharmacology Research & Perspectives, 2020)

Columns and labels:
[1] = system: CaMKIIα‐tTA/A53T α‐syn dTg mice; test: Y‐maze task; assay type: in vivo, mouse; conditions: 1 mg/kg p.o. (P = .12)
Description: The Y‐maze was fabricated from gray plastic and consisted of three arms (40 cm long, 12 cm high, 3 cm wide at the bottom, and 10 cm wide at the top) with an angle of 120°. Visual cues were placed outside each arm, and the apparatus was illuminated at 10 lux. […] An arm entry was defined as all four paws of the mouse being in the arm, and the sequence of arm entries was monitored with a video camera and counted manually. An alternation was defined as successive entries into the three arms on overlapping triplet sets.36 The percentage of alternation was calculated as the ratio of actual to possible alternations (total number of arm entries minus 2) multiplied by 100.

SD rats = conditions: rats, donepezil 0.1 mg/kg p.o. alone; combination study; rats with effect/total
Description: Seven‐ or 8‐week‐old SD rats were individually placed into observation cages. After an acclimation period of at least 1 hour, a test compound was administered to the rats. […] Cholinergic side effects, including diarrhea, lacrimation, salivation, miosis, and fasciculation, were assessed blindly, as described previously,27 and convulsion was scored using a modified Racine scale,37 as follows: stage 0, normal; stage 1, immobility; stage 2, forelimb and/or tail extension and rigid posture; stage 3, repetitive movements, head nodding, and gnawing; stage 4, rearing and falling; stage 5, continuous rearing and falling; stage 6, severe tonic‐clonic seizure with loss of postural control; and stage 7, death in the first 2 hours.

[2] = system: rats pretreated with scopolamine; parameters: method as in PMID 30089885; conditions: 0.1 mg/kg; cited from earlier work
M1R [3] = system: M1R; parameters: method as in PMID 30089885; conditions: at concentrations required for procognitive efficacy; cited from earlier work
rats = system: rats; parameters: method as in PMID 30089885; conditions: cited from earlier work
M1R [4] = system: M1R; parameters: method as in PMID 30089885; conditions: cited from earlier work

Row | SMILES | reduced percentage of alternations [1] | Convulsion (SD rats) | Fasciculation (SD rats) | Lacrimation (SD rats) | Loose, mucous stool, or diarrhea (SD rats) | Myosis (SD rats) | Salivation (SD rats) | scopolamine‐induced NDI reduction, retention trial [2] | inhibition of the binding of scopolamine to M1R (M1R [3]) | scopolamine‐induced cognitive impairment, combination with an AChEI (rats) | difference between doses improving cognitive function and doses inducing diarrhea (rats; rats) [fold] | α‐value (cooperativity) (M1R [4])
1 | COc1cc2c(cc1OC)C(=O)C(CC1CCN(Cc3ccccc3)CC1)C2 (stereo not drawn) [donepezil, reference compound] | tended to reverse | 0/6 | 0/6 | 0/6 | 0/6 | 0/6 | 0/6 | subeffective | – | – | – | –
2 | Cc1c(Cc2ccc(-n3cccn3)cc2)cc2c(c1F)CN([C@H]1COCC[C@@H]1O)C2=O [TAK‐071] | – | – | – | – | – | – | – | – | did not inhibit | synergistically improved | 33 | 199
